Experimental data as given in patent US20110190365A1, “Insecticidal 4-phenyl-1H-pyrazoles” (Bayer Crop Science AG, priority 2008, published 2011).

Experiments:
[1] = log P by HPLC on a reversed-phase column (C18), EEC Directive 79/831 Annex V.A8; format: physicochemical; settings: for chromatographic logP: read-out: log P (HCOOH)
Protocol: The stated log P values were determined in accordance with EEC Directive 79/831 Annex V.A8 by HPLC (High Performance Liquid Chromatography) using a reversed-phase column (C18).

[2] = test system: larvae of the mustard beetle (Phaedon cochleariae); assay: Phaedon cochleariae test (PHAECO spray treatment); format: in vivo; settings: application rate 500 g/ha, Chinese cabbage leaf discs sprayed, after 7 days; for pest or weed control at 500 g/ha: Phaedon cochleariae, foliar, 168 h, read-out: effect in % (beetle larvae killed)
Protocol: Phaedon cochleariae Test (PHAECO Spray Treatment)
Solvent: 78.0 parts by weight of acetone • • 1.5 parts by weight of dimethylformamide Emulsifier: 0.5 part by weight of alkylaryl polyglycol ether
To produce a suitable preparation of active compound, 1 part by weight of active compound is mixed with the stated amounts of solvent and emulsifier, and the concentrate is diluted with emulsifier-containing water to the desired concentration.
Discs of Chinese cabbage (Brassica pekinensis) are sprayed with an active compound preparation of the desired concentration and, after drying, populated with larvae of the mustard beetle (Phaedon cochleariae).
After 7 days, the effect in % is determined. 100% means that all beetle larvae have been killed; 0% means that none of the beetle larvae have been killed.

[3] = test system: stage 3 Spodoptera litura larvae; assay: Spodoptera litura larvae test; format: in vivo; settings: active compound concentration 500 ppm, sweet potato leaf dip, after 7 days, mean of two dishes
Protocol: Spodoptera litura Larvae Test
(§1) Solvent: 3 parts by weight of dimethylformamide Emulsifier: 1 part by weight of polyoxyethylene alkylphenyl ether
To prepare a suitable active compound, 1 part by weight of active compound is mixed with the stated amount of solvent comprising the stated amount of emulsifier, and the mixture is diluted with water to the specified concentration.
Sweet potato leaves are dipped into the sample solution diluted with water to the specified concentration and the leaves treated in this manner are, after the solution adhering to the leaves has dried in air, transferred into a laboratory dish which has a diameter of 9 cm and in which there are 10 stage 3 Spodoptera litura larvae. The dish is then placed in a temperature-controlled room at 25° C., sweet potato leaves are then added to the dish on day two and day four and the number of dead insects is determined after 7 days and used to calculate the insecticidal ratio.
The results are the means of two laboratory dishes per group in this test.

[4] = test system: stage 2 Aulacophora femoralis larvae; assay: Aulacophora femoralis test (spray test); format: in vivo; settings: active compound concentration 500 ppm, cucumber leaf dip, after 7 days
Protocol: Aulacophora femoralis Test (Spray Test)
as §1
To prepare a suitable active compound formulation, 1 part by weight of the active compound is mixed with the stated amount of solvent comprising the stated amount of emulsifier, and the mixture is diluted with water to a specified concentration.
Cucumber leaves are dipped into a dilute aqueous solution of an active compound at the specified concentration prepared in the same manner as in the test described above, air-dried and transferred into a plastic dish with sterilized black soil. 5 stage 2 Aulacophora femoralis larvae are transferred into this dish. The dish is then placed into a temperature-controlled room at 25° C. After 7 days, the number of dead larvae is counted to calculate the mortality.

[5] = HPLC, reversed-phase C18, mobile phase with formic acid

SMILES | chromatographic logP [1, 5] | pest or weed control at 500 g/ha [2] | log P (HCOOH) ([1]; HCOOH) | further results
N#Cc1cc(-n2nc(C(F)(F)F)c(-c3cc(Cl)cc(C(F)(F)F)c3)c2N)ccc1-n1nc[nH]c1=O [I-A-Q1-002, 5-[5-Amino-4-(3-chloro-5-trifluoromethylphenyl)-3-trifluoromethylpyrazol-1-yl]-2-(5-oxo-4,5-dihydro[1,2,4]triazol-1-yl)benzonitrile] | 3.45 | > 80% |  | 
COC(=O)c1ccc(-n2nc(C(F)(F)F)c(-c3cc(Cl)cc(Cl)c3)c2N)cc1C [I-A-Q4-011, Methyl 4-[5-amino-4-(3,5-dichlorophenyl)-3-trifluoromethylpyrazol-1-yl]-2-methylbenzoate] | 5.08 | > 80% |  | 
Cc1cc(-n2nc(C(F)(F)F)c(-c3cc(Cl)cc(Cl)c3)c2Cl)ccc1C(=O)NC(C)C(F)(F)F (stereo not shown) [I-A-Q2-022, 4-[5-Chloro-4-(3,5-dichlorophenyl)-3-trifluoromethylpyrazol-1-yl]-2-methyl-N-(2,2,2-trifluoro-1-methylethyl)benzamide] | 5.59 | > 80% |  | 
Cc1cc(-n2nc(C(F)(F)F)c(-c3cc(Cl)cc(Cl)c3)c2I)ccc1C(=O)NCc1ccccn1 [I-A-Q2-025, 4-[4-(3,5-Dichlorophenyl)-5-iodo-3-trifluoromethylpyrazol-1-yl]-2-methyl-N-pyridin-2-ylmethylbenzamide] | 4.29 | > 80% |  | 
CC[S+]([O-])c1ccn(-c2ccc(-n3nc(C(F)(F)F)c(-c4cc(Cl)cc(Cl)c4)c3N)cc2C#N)n1 (stereo not shown) [I-A-Q1-090] |  |  |  | log P (HCOOH) [1, 5]: I-A-Q1-090: log P (HCOOH): 3.47; effect in % (beetle larvae killed) [2]: 100%
N#Cc1cc(-n2nc(C(F)(F)F)c(-c3cc(Cl)cc(C(F)(F)F)c3)c2N)ccc1-n1cncn1 [I-A-Q1-001, 5-[5-Amino-4-(3-chloro-5-trifluoromethylphenyl)-3-trifluoromethylpyrazol-1-yl]-2-[1,2,4]triazol-1-ylbenzonitrile] | 3.92 | > 80% |  | 
Nc1c(-c2cc(Cl)cc(Cl)c2)c(C(F)(F)F)nn1-c1ncc(C(=O)NCc2ccccn2)c(C(F)(F)F)n1 [I-A-Q2-020, N-(Pyridin-2-ylmethyl)-2-[5-amino-4-(3,5-dichlorophenyl)-3-trifluoromethylpyrazol-1-yl]-4-trifluoromethylpyrimidine-5-carboxamide] | 3.54 | > 80% |  | 
Cc1cc(-n2nc(C(F)(F)F)c(-c3cccc(Br)c3)c2N)ccc1C(=O)NCc1ncccn1 [I-A-Q2-417] |  |  | I-A-Q2-417: log P (HCOOH): 3.13 | effect in % (beetle larvae killed) [2]: 100%
Cc1cc(-n2nc(C(F)(F)F)c(-c3ccccc3Br)c2N)ccc1C(=O)NCc1ncccn1 [I-A-Q2-419] |  |  | I-A-Q2-419: log P (HCOOH): 2.68 | effect in % (beetle larvae killed) [2]: 100%
CCOC(=O)c1ccc(-n2cc(-c3cc(Cl)cc(Cl)c3)c(C(F)(F)F)n2)cc1C(F)(F)F [I-A-Q4-001, Ethyl 4-[4-(3,5-dichlorophenyl)-3-trifluoromethylpyrazol-1-yl]-2-trifluoromethylbenzoate] |  |  |  | kill of the insect larvae [3]: 80%
O=C(NCC(F)(F)F)c1ccc(-n2cc(-c3cc(C(F)(F)F)cc(C(F)(F)F)c3)c(C(F)(F)F)n2)cc1C(F)(F)F [I-A-Q2-010] |  |  |  | kill of the insect larvae [3]: 100%; kill of the insects [4]: 100%
Cc1cc(-n2nc(C(F)(F)F)c(-c3ccccc3Cl)c2N)ccc1C(=O)NC(C)c1ccccn1 (stereo not shown) [I-A-Q2-415] |  |  | I-A-Q2-415: log P (HCOOH): 2.71 | effect in % (beetle larvae killed) [2]: 100%
CSc1c(-c2cc(Cl)cc(Cl)c2)c(C(F)(F)F)nn1-c1ccc(C(=O)NC(C)C(F)(F)F)c(C)c1 (stereo not shown) [I-A-Q2-027, 4-[4-(3,5-Dichlorophenyl)-5-methylsulphanyl-3-trifluoromethylpyrazol-1-yl]-2-methyl-N-(2,2,2-trifluoro-1-methylethyl)benzamide] | 5.48 | > 80% |  | 
Cc1cc(-n2nc(C(F)(F)F)c(-c3ccccc3Br)c2N)ccc1C(=O)NCc1ccccn1 [I-A-Q2-421] |  |  | I-A-Q2-421: log P (HCOOH): 2.53 | effect in % (beetle larvae killed) [2]: 100%
CCS(=O)(=O)c1ncn(-c2ccc(-n3nc(C(F)(F)F)c(-c4cc(Cl)cc(Cl)c4)c3N)cc2C#N)n1 [I-A-Q1-087] |  |  |  | log P (HCOOH) [1, 5]: I-A-Q1-087: log P (HCOOH): 3.78; effect in % (beetle larvae killed) [2]: 100%
Cc1cc(-n2nc(C(F)(F)F)c(-c3ccc(Cl)cc3Cl)c2N)ccc1C(=O)NC(C)c1ccccn1 (stereo not shown) [I-A-Q2-412] |  |  | I-A-Q2-412: log P (HCOOH): 3.29 | effect in % (beetle larvae killed) [2]: 100%

SMILES | chromatographic logP [1, 5] | pest or weed control at 500 g/ha [2] | log P (HCOOH) ([1]; HCOOH) | further results
O=[N+]([O-])c1ccc(-n2cc(-c3cc(Cl)cc(Cl)c3)c(C(F)(F)F)n2)cc1C(F)(F)F [I-A-Q4-006] |  |  |  | kill of the insect larvae [3]: 80%
Cc1cc(-n2nc(C(F)(F)F)c(-c3ccccc3Br)c2N)ccc1C(=O)NC(C)c1ccccn1 (stereo not shown) [I-A-Q2-420] |  |  | I-A-Q2-420: log P (HCOOH): 2.81 | effect in % (beetle larvae killed) [2]: 100%
CC(NC(=O)c1ccc(-n2cc(-c3cc(Cl)cc(Cl)c3)cn2)cc1C(F)(F)F)C(F)(F)F (stereo not shown) [I-A-Q2-006] |  |  |  | kill of the insect larvae [3]: 100%
CC(NC(=O)c1ccc(-n2cc(-c3cc(Cl)cc(Cl)c3)c(C(F)(F)F)n2)cc1C(F)(F)F)C(F)(F)F (stereo not shown) [I-A-Q2-005] |  |  |  | kill of the insect larvae [3]: 100%; kill of the insects [4]: 100%
Cc1cc(-n2nc(C(F)(F)F)c(-c3cc(Cl)cc(Cl)c3)c2N)ccc1C(=O)NCc1ccccn1 [I-A-Q2-012, 4-[5-Amino-4-(3,5-dichlorophenyl)-3-trifluoromethylpyrazol-1-yl]-2-methyl-N-pyridin-2-ylmethylbenzamide] | 3.35 | > 80% |  | 
N#Cc1cc(-n2nc(C(F)(F)F)c(-c3cc(Cl)cc(C(F)(F)F)c3)c2N)ccc1F [I-A-Q4-009, 5-[5-Amino-4-(3-chloro-5-trifluoromethylphenyl)-3-trifluoromethylpyrazol-1-yl]-2-fluorobenzonitrile] | 4.54 | > 80% |  | 
O=C(NCc1ccccn1)c1ccc(-n2cc(-c3cc(Cl)cc(Cl)c3)c(C(F)(F)F)n2)cc1C(F)(F)F [I-A-Q2-001] |  |  |  | kill of the insect larvae [3]: 100%; log P (pH 2) ([1]; pH 2): I-A-Q2-001: log P (pH 2): 4.02; log P (pH 7.5) ([1]; pH 7.5): log P (pH 7.5): 4.74
Cc1cc(-n2nc(C(F)(F)F)c(-c3ccccc3Cl)c2N)ccc1C(=O)NCc1ncccn1 [I-A-Q2-414] |  |  | I-A-Q2-414: log P (HCOOH): 2.72 | effect in % (beetle larvae killed) [2]: 100%
O=C(NCc1ccccn1)c1ccc(-n2cc(-c3cc(Cl)cc(Cl)c3)c(C(F)(F)F)n2)cc1[N+](=O)[O-] [I-A-Q2-003] |  |  |  | kill of the insect larvae [3]: 100%
Cc1cc(-n2nc(C(F)(F)F)c(-c3cc(Cl)cc(Cl)c3)c2Br)ccc1C(=O)NC(C)C(F)(F)F (stereo not shown) [I-A-Q2-024, 4-[5-Bromo-4-(3,5-dichlorophenyl)-3-trifluoromethylpyrazol-1-yl]-2-methyl-N-(2,2,2-trifluoro-1-mmethylethyl)benzamide] | 5.53 | > 80% |  | 
COC(=O)c1ccc(-n2nc(C(F)(F)F)c(Br)c2N)cc1C [XI-A-082] |  |  | XI-A-082: log P (HCOOH): 3.52 | 
N#Cc1cc(-n2nc(C(F)(F)F)c(-c3cc(Cl)cc(Cl)c3)c2N)ccc1-n1cncn1 [I-A-Q1-024] |  |  |  | log P (HCOOH) [1, 5]: I-A-Q1-024: log P (HCOOH): 3.90
Cc1cc(-n2nc(C(F)(F)F)c(-c3cc(Cl)cc(Cl)c3)c2N)ccc1C(=O)N(C)C(C)c1ccncc1 (stereo not shown) [I-A-Q2-211] |  |  | I-A-Q2-211: log P (HCOOH): 2.89 | 
CCNC(=O)c1ccc(-n2nc(C(F)(F)F)c(-c3cc(Cl)cc(Cl)c3)c2N)cc1C [I-A-Q2-270] |  |  | I-A-Q2-270: log P (HCOOH): 3.84 | 
Cc1cc(-n2nc(C(F)(F)F)c(-c3cc(Cl)cc(Cl)c3)c2N)ccc1C(=O)NC(C)c1ccncc1 (stereo not shown) [I-A-Q2-234] |  |  | I-A-Q2-234: log P (HCOOH): 2.38 | 
Cc1cc(-n2nc(C(F)(F)F)c(-c3cc(Cl)cc(Cl)c3)c2N)ccc1C(=O)NCCN1CCOCC1 [I-A-Q2-264] |  |  | I-A-Q2-264: log P (HCOOH): 1.99 | 
